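48-hour exposure; five concentrations; linearly interpolated endpoints. TGI: total growth inhibition.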
How the values were obtained:
Test in all cases: NCI-60 cell line screen, 48 h
786-0 renal = system: 786-0 renal
A498 renal = system: A498 renal
A549 NSCLC = system: A549 NSCLC
ACHN renal = system: ACHN renal
BT-549 breast = system: BT-549 breast
CAKI-1 renal = system: CAKI-1 renal
CCRF-CEM leukemia = system: CCRF-CEM leukemia
COLO 205 colon = system: COLO 205 colon
DU-145 prostate = system: DU-145 prostate
EKVX NSCLC = system: EKVX NSCLC
HCC-2998 colon = system: HCC-2998 colon
HCT-116 colon = system: HCT-116 colon
HCT-15 colon = system: HCT-15 colon
HL-60(TB) leukemia = system: HL-60(TB) leukemia
HOP-62 NSCLC = system: HOP-62 NSCLC
HOP-92 NSCLC = system: HOP-92 NSCLC
HT29 colon = system: HT29 colon
IGROV1 ovarian = system: IGROV1 ovarian
K-562 leukemia = system: K-562 leukemia
KM12 colon = system: KM12 colon
LOX IMVI melanoma = system: LOX IMVI melanoma
M14 melanoma = system: M14 melanoma
MALME-3M melanoma = system: MALME-3M melanoma
MCF7 breast = system: MCF7 breast
MDA-MB-231 breast = system: MDA-MB-231 breast
MDA-MB-435 = system: MDA-MB-435
MDA-N = system: MDA-N
MOLT-4 leukemia = system: MOLT-4 leukemia
NCI-H226 lung = system: NCI-H226 lung
NCI-H23 lung = system: NCI-H23 lung
NCI-H460 lung = system: NCI-H460 lung
NCI-H522 lung = system: NCI-H522 lung
NCI/ADR-RES ovarian = system: NCI/ADR-RES ovarian
OVCAR-3 ovarian = system: OVCAR-3 ovarian
OVCAR-4 ovarian = system: OVCAR-4 ovarian
OVCAR-5 ovarian = system: OVCAR-5 ovarian
OVCAR-8 ovarian = system: OVCAR-8 ovarian
PC-3 prostate = system: PC-3 prostate
RPMI-8226 leukemia = system: RPMI-8226 leukemia
RXF 393 renal = system: RXF 393 renal
SF-268 CNS = system: SF-268 CNS
SF-295 CNS = system: SF-295 CNS
SF-539 CNS = system: SF-539 CNS
SK-MEL-2 melanoma = system: SK-MEL-2 melanoma
SK-MEL-28 melanoma = system: SK-MEL-28 melanoma
SK-MEL-5 melanoma = system: SK-MEL-5 melanoma
SK-OV-3 ovarian = system: SK-OV-3 ovarian
SN12C renal = system: SN12C renal
SNB-19 CNS = system: SNB-19 CNS
SNB-75 CNS = system: SNB-75 CNS
SR leukemia = system: SR leukemia
SW-620 colon = system: SW-620 colon
T-47D breast = system: T-47D breast
TK-10 renal = system: TK-10 renal
U251 CNS = system: U251 CNS
UACC-257 melanoma = system: UACC-257 melanoma
UACC-62 melanoma = system: UACC-62 melanoma
UO-31 renal = system: UO-31 renal
HS 578T breast = system: HS 578T breast

Measured: TGI

CCOP(=O)(OCC)C1=C(c2ccccc2)OC(N)=C(C#N)C1c1ccc(Cl)cc1 (centres undefined)
> 100 µM: 786-0 renal | A498 renal | A549 NSCLC | ACHN renal | BT-549 breast | CAKI-1 renal | CCRF-CEM leukemia | COLO 205 colon | DU-145 prostate | EKVX NSCLC | HCC-2998 colon | HCT-116 colon | HCT-15 colon | HL-60(TB) leukemia | HOP-62 NSCLC | HOP-92 NSCLC | HT29 colon | IGROV1 ovarian | K-562 leukemia | KM12 colon | LOX IMVI melanoma | M14 melanoma | MALME-3M melanoma | MCF7 breast | MDA-MB-231 breast | MDA-MB-435 | MDA-N | MOLT-4 leukemia | NCI-H226 lung | NCI-H23 lung | NCI-H460 lung | NCI-H522 lung | NCI/ADR-RES ovarian | OVCAR-3 ovarian | OVCAR-4 ovarian | OVCAR-5 ovarian | OVCAR-8 ovarian | PC-3 prostate | RPMI-8226 leukemia | RXF 393 renal | SF-268 CNS | SF-295 CNS | SF-539 CNS | SK-MEL-2 melanoma | SK-MEL-28 melanoma | SK-MEL-5 melanoma | SK-OV-3 ovarian | SN12C renal | SNB-19 CNS | SNB-75 CNS | SR leukemia | SW-620 colon | T-47D breast | TK-10 renal | U251 CNS | UACC-257 melanoma | UACC-62 melanoma | UO-31 renal

NNCCc1n[nH]c(=O)n1N
> 100 µM: 786-0 renal | A549 NSCLC | ACHN renal | BT-549 breast | CAKI-1 renal | CCRF-CEM leukemia | COLO 205 colon | DU-145 prostate | EKVX NSCLC | HCC-2998 colon | HCT-116 colon | HCT-15 colon | HL-60(TB) leukemia | HOP-62 NSCLC | HOP-92 NSCLC | HS 578T breast | HT29 colon | IGROV1 ovarian | K-562 leukemia | KM12 colon | LOX IMVI melanoma | M14 melanoma | MALME-3M melanoma | MCF7 breast | MDA-MB-231 breast | MDA-MB-435 | MDA-N | MOLT-4 leukemia | NCI-H226 lung | NCI-H23 lung | NCI-H460 lung | NCI-H522 lung | NCI/ADR-RES ovarian | OVCAR-3 ovarian | OVCAR-4 ovarian | OVCAR-5 ovarian | OVCAR-8 ovarian | PC-3 prostate | RPMI-8226 leukemia | RXF 393 renal | SF-268 CNS | SF-295 CNS | SF-539 CNS | SK-MEL-28 melanoma | SK-MEL-5 melanoma | SK-OV-3 ovarian | SN12C renal | SNB-19 CNS | SNB-75 CNS | SR leukemia | SW-620 colon | T-47D breast | U251 CNS | UACC-257 melanoma | UACC-62 melanoma | UO-31 renal

Source: PubChem BioAssay (NCI)
